Measurements: ChEMBL document CHEMBL3352536, “Antiparasitic compounds may potentially treat malaria and other parasitic diseases” (ACS Med Chem Lett, 2014)
pEC50: −log10 of the molar value.

Legend:
[1] = system: Plasmodium yoelii; assay: Antiplasmodial activity against Plasmodium yoelii infected in liver cells assessed as inhibition of proliferation; assay type: functional, organism-based
[2] = system: Plasmodium falciparum; assay: Antiplasmodial activity against Plasmodium falciparum infected in human blood cells assessed as inhibition of proliferation; assay type: functional, organism-based

| SMILES | pEC50 [1] | pEC50 [2] |
| --- | --- | --- |
| CN(C(=O)c1cn2c(-c3ccc(C(N)=O)cc3)cnc2cn1)c1ccc(F)cc1 | 7.25 | 7.13 |
| CN(Cc1cn2c(-c3ccc(C(N)=O)cc3)cnc2cn1)c1ccc(F)cc1 | 8.15 | 7.52 |
| CN(Cc1cn2c(-c3ccc(C(N)=O)cc3)cnc2cn1)c1ccc(Cl)cc1 | 7.96 | 8.05 |
| Cc1ccc(N(C)C(=O)c2cn3c(-c4ccc(C(F)(F)F)cc4)cnc3cn2)nc1 | 5.96 | 6.70 |
